How the values were obtained:
[1] = test system: JIYOYE; assay: cells; assay type: functional, cell-based, Homo sapiens; details: Homo sapiens, JIYOYE
Description: SANGER: Inhibition of human JiyoyeP-2003 cell growth in a cell viability assay.

[2] = test system: NCI-H889; assay: cells; assay type: functional, cell-based, Homo sapiens; details: Homo sapiens, NCI-H889;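 further: cell growth inhibition of the cell line, read out with a viability assay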
Description: SANGER: Inhibition of human NCI-H889 cell growth in a cell viability assay.

[3] = test system: ST486; assay: SANGER: Inhibition of human ST486 cell growth in a cell viability assay.; assay type: functional, cell-based; details: Homo sapiens, ST486
[4] = test system: NB14; assay: cells; assay type: functional, cell-based, Homo sapiens; details: Homo sapiens, NB14;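 further: growth inhibition of NB14 cells measured with a cell viability assay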
Description: SANGER: Inhibition of human NB14 cell growth in a cell viability assay.

[5] = test system: COR-L279; assay: SANGER: Inhibition of human COR-L279 cell growth in a cell viability assay.; assay type: functional, cell-based; details: Homo sapiens, COR-L279
[6] = test system: NCI-H322M; assay: cells; assay type: functional, cell-based, Homo sapiens; details: Homo sapiens, NCI-H322M;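 further: cell viability assay measuring inhibition of growth of human NCI-H322M cells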
Description: SANGER: Inhibition of human NCI-H322M cell growth in a cell viability assay.

[7] = test system: SNU-C1; assay: cells; assay type: functional, cell-based, Homo sapiens; details: Homo sapiens, SNU-C1;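 further: growth inhibition of SNU-C1 human cells, read out by a cell viability assay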
Description: SANGER: Inhibition of human SNU-C1 cell growth in a cell viability assay.

[8] = test system: MRK-nu-1; assay: cells; assay type: functional, cell-based, Homo sapiens; details: Homo sapiens, MRK-nu-1;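 further: cell viability assay measuring growth suppression of human MRK-nu-1 cells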
Description: SANGER: Inhibition of human MRK-nu-1 cell growth in a cell viability assay.

[9] = test system: D-336MG; assay: cells; assay type: functional, cell-based, Homo sapiens; details: Homo sapiens, D-336MG
Description: SANGER: Inhibition of human D-336MG cell growth in a cell viability assay.

[10] = test system: LB647-SCLC; assay: cells; assay type: functional, cell-based, Homo sapiens; details: Homo sapiens, LB647-SCLC;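 further: cell growth inhibition, read out by a viability assay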
Description: SANGER: Inhibition of human LB647-SCLC cell growth in a cell viability assay.

[11] = test system: NALM-6; assay: cells; assay type: functional, cell-based, Homo sapiens; details: Homo sapiens, NALM-6;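 further: growth inhibition of NALM-6 cells, read out with a cell viability assay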
Description: SANGER: Inhibition of human NALM-6 cell growth in a cell viability assay.

[12] = test system: ARH-77; assay: cells; assay type: functional, cell-based, Homo sapiens; details: Homo sapiens, ARH-77;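 further: growth inhibition of ARH-77 cells, read out by a cell viability assay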
Description: SANGER: Inhibition of human ARH-77 cell growth in a cell viability assay.

[13] = test system: MHH-CALL-2; assay: cells; assay type: functional, cell-based, Homo sapiens; details: Homo sapiens, MHH-CALL-2;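 further: growth inhibition of the cell line, read out in a cell viability assay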
Description: SANGER: Inhibition of human MHH-CALL-2 cell growth in a cell viability assay.

[14] = test system: TCC-SUP; assay: cells; assay type: functional, cell-based, Homo sapiens; details: Homo sapiens, TCC-SUP;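 further: growth inhibition of TCC-SUP cells, read out with a cell viability assay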
Description: SANGER: Inhibition of human TCCSUP cell growth in a cell viability assay.

[15] = test system: SW1710; assay: cells; assay type: functional, cell-based, Homo sapiens; details: Homo sapiens, SW1710;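 further: growth inhibition of SW1710 cells, determined with a cell viability assay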
Description: SANGER: Inhibition of human SW1710 cell growth in a cell viability assay.

[16] = test system: KU-19-19; assay: cells; assay type: functional, cell-based, Homo sapiens; details: Homo sapiens, KU-19-19
Description: SANGER: Inhibition of human KU-19-19 cell growth in a cell viability assay.

[17] = test system: 23132-87; assay: cells; assay type: functional, cell-based, Homo sapiens; details: Homo sapiens
Description: SANGER: Inhibition of human 23132-87 cell growth in a cell viability assay.

[18] = test system: OE19; assay: cells; assay type: functional, cell-based, Homo sapiens; details: Homo sapiens, OE19;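 further: growth inhibition of OE19 cells, measured through a cell viability read-out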
Description: SANGER: Inhibition of human OE19 cell growth in a cell viability assay.

[19] = test system: J82; assay: cells; assay type: functional, cell-based, Homo sapiens; details: Homo sapiens, J82;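 further: growth inhibition of J82 cells, read out with a cell viability assay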
Description: SANGER: Inhibition of human J82 cell growth in a cell viability assay.

[20] = test system: AGS; assay: cells; assay type: functional, cell-based, Homo sapiens; details: Homo sapiens, AGS;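 further: growth inhibition of AGS cells, determined with a cell viability assay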
Description: SANGER: Inhibition of human AGS cell growth in a cell viability assay.

[21] = test system: NCI-H441; assay: cells; assay type: functional, cell-based, Homo sapiens; details: Homo sapiens, NCI-H441;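 further: growth inhibition of NCI-H441 cells, read out with a cell viability assay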
Description: SANGER: Inhibition of human NCI-H441 cell growth in a cell viability assay.

[22] = test system: BT-20; assay: cells; assay type: functional, cell-based, Homo sapiens; details: Homo sapiens, BT-20;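 further: cell viability assay measuring suppression of growth in human BT-20 cells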
Description: SANGER: Inhibition of human BT-20 cell growth in a cell viability assay.

[23] = test system: BCPAP; assay: cells; assay type: functional, cell-based, Homo sapiens; details: Homo sapiens, BCPAP;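 further: growth inhibition of BCPAP cells, read out in a cell viability assay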
Description: SANGER: Inhibition of human BCPAP cell growth in a cell viability assay.

[24] = test system: SiHa; assay: cells; assay type: functional, cell-based, Homo sapiens; details: Homo sapiens, SiHa;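 further: Viability-based readout of growth inhibition in SiHa cells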
Description: SANGER: Inhibition of human SiHa cell growth in a cell viability assay.

[25] = test system: P12-Ichikawa; assay: cells; assay type: functional, cell-based, Homo sapiens; details: Homo sapiens, P12-Ichikawa
[26] = test system: HCC1419; assay: cells; assay type: functional, cell-based, Homo sapiens; details: Homo sapiens, HCC1419;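 further: growth inhibition of human HCC1419 cells, read out as cell viability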
Description: SANGER: Inhibition of human HCC1419 cell growth in a cell viability assay.

[27] = test system: EFO-27; assay: cells; assay type: functional, cell-based, Homo sapiens; details: Homo sapiens, EFO-27;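 further: growth inhibition of EFO-27 cells, read out with a cell viability assay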
Description: SANGER: Inhibition of human EFO-27 cell growth in a cell viability assay.

[28] = test system: RERF-LC-MS; assay: cells; assay type: functional, cell-based, Homo sapiens; details: Homo sapiens, RERF-LC-MS;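 further: growth inhibition of human RERF-LC-MS cells, read out by a cell viability assay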
Description: SANGER: Inhibition of human RERF-LC-MS cell growth in a cell viability assay.

[29] = test system: SKG-IIIa; assay: cells; assay type: functional, cell-based, Homo sapiens; details: Homo sapiens, SKG-IIIa;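 further: cell growth inhibition, read out with a cell viability assay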
Description: SANGER: Inhibition of human SKG-IIIa cell growth in a cell viability assay.

[30] = test system: SW48; assay: cells; assay type: functional, cell-based, Homo sapiens; details: Homo sapiens, SW48;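 further: growth inhibition of SW48 cells, read out with a cell viability assay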
Description: SANGER: Inhibition of human SW48 cell growth in a cell viability assay.

[31] = test system: HTC-C3; assay: cells; assay type: functional, cell-based, Homo sapiens; details: Homo sapiens, HTC-C3;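 further: inhibition of cell growth, read out with a cell viability assay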
Description: SANGER: Inhibition of human HTC-C3 cell growth in a cell viability assay.

[32] = test system: CAPAN-1; assay: cells; assay type: functional, cell-based, Homo sapiens; details: Homo sapiens, CAPAN-1;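 further: growth suppression of CAPAN-1 cells, read out by a cell viability assay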
Description: SANGER: Inhibition of human CAPAN-1 cell growth in a cell viability assay.

[33] = test system: C3A; assay: cells; assay type: functional, cell-based, Homo sapiens; details: Homo sapiens, C3A;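 further: growth inhibition of C3A human cells, quantified with a cell viability readout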
Description: SANGER: Inhibition of human C3A cell growth in a cell viability assay.

[34] = test system: SW626; assay: cells; assay type: functional, cell-based, Homo sapiens; details: Homo sapiens, SW626;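 further: growth inhibition of SW626 cells, measured with a cell viability assay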
Description: SANGER: Inhibition of human SW626 cell growth in a cell viability assay.

[35] = test system: 5637; assay: cells; assay type: functional, cell-based, Homo sapiens; details: Homo sapiens
Description: SANGER: Inhibition of human 5637 cell growth in a cell viability assay.

[36] = test system: DMS-273; assay: cells; assay type: functional, cell-based, Homo sapiens; details: Homo sapiens, DMS-273
Description: SANGER: Inhibition of human DMS-273 cell growth in a cell viability assay.

[37] = test system: FaDu; assay: cells; assay type: functional, cell-based, Homo sapiens; details: Homo sapiens, FaDu;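 further: cell viability readout of growth inhibition in FaDu cells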
Description: SANGER: Inhibition of human FADU cell growth in a cell viability assay.

[38] = test system: HCC1395; assay: cells; assay type: functional, cell-based, Homo sapiens; details: Homo sapiens, HCC1395;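 further: growth inhibition of HCC1395 cells, read out by a cell viability assay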
Description: SANGER: Inhibition of human HCC1395 cell growth in a cell viability assay.

[39] = test system: SW948; assay: cells; assay type: functional, cell-based, Homo sapiens; details: Homo sapiens, SW948;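 further: growth inhibition of SW948 cells, read out with a cell viability assay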
Description: SANGER: Inhibition of human SW948 cell growth in a cell viability assay.

[40] = test system: CAL-72; assay: cells; assay type: functional, cell-based, Homo sapiens; details: Homo sapiens, CAL-72;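 further: cell viability assay measuring inhibition of proliferation in the CAL-72 cell line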
Description: SANGER: Inhibition of human CAL-72 cell growth in a cell viability assay.

[41] = test system: RD; assay: cells; assay type: functional, cell-based, Homo sapiens; details: Homo sapiens, RD
Description: SANGER: Inhibition of human RD cell growth in a cell viability assay.

In the case of `COc1cc2ncn(-c3cc(OCc4ccccc4C(F)(F)F)c(C(N)=O)s3)c2cc1OC` [GW843682X], the IC50 [1] is reported as 0.148 µM, the IC50 [2] is reported as 0.0924 µM and the IC50 [3] is reported as 0.0204 µM. The IC50 [4] was greater than 0.256 µM, the IC50 [5] was 0.0992 µM and the IC50 [6] was greater than 0.256 µM. The IC50 [7] was greater than 0.256 µM, the IC50 [8] was 0.0301 µM and the IC50 [9] was greater than 0.256 µM. For the same compound, the IC50 [10] was 0.0189 µM, the IC50 [11] was 0.0245 µM and the IC50 [12] was 0.0581 µM. For the same compound, the IC50 [13] was greater than 0.256 µM.
Work on `CN(C)C(=N)NC(=N)N` [METFORMIN] yielded an IC50 [14] of 4010 µM, an IC50 [15] greater than 20000 µM and an IC50 [16] of 9610 µM. For the same compound, the IC50 [17] was 11200 µM, the IC50 [18] was greater than 20000 µM and the IC50 [19] was 12900 µM. For the same compound, the IC50 [20] was 15700 µM, the IC50 [21] was greater than 20000 µM and the IC50 [22] was 15300 µM. It also gave an IC50 [23] greater than 20000 µM, an IC50 [24] greater than 20000 µM and an IC50 [25] of 12400 µM. The IC50 [26] was greater than 20000 µM, the IC50 [27] was greater than 20000 µM and the IC50 [28] was 14400 µM. The IC50 [29] was greater than 20000 µM, the IC50 [30] was greater than 20000 µM and the IC50 [31] was greater than 20000 µM. The IC50 [32] was greater than 20000 µM, the IC50 [33] was 11300 µM and the IC50 [34] was greater than 20000 µM. The IC50 [35] was 5300 µM, the IC50 [36] was 13600 µM and the IC50 [37] was 11200 µM. For the same compound, the IC50 [38] was greater than 20000 µM, the IC50 [39] was greater than 20000 µM and the IC50 [40] was 6270 µM. The IC50 [41] was greater than 20000 µM.
Compound `CC(=O)O[C@H]1C(=O)[C@@]2(C)[C@H]([C@H](OC(=O)c3ccccc3)[C@]3(O)C[C@H](OC(=O)[C@H](O)[C@@H](NC(=O)c4ccccc4)c4ccccc4)C(C)=C1C3(C)C)[C@]1(OC(C)=O)CO[C@@H]1C[C@@H]2O` [PACLITAXEL] has an IC50 [1] of 0.0218 µM, an IC50 [2] of 0.0559 µM and an IC50 [3] of 0.012 µM. It also gave an IC50 [4] greater than 0.102 µM, an IC50 [5] of 0.00999 µM and an IC50 [6] greater than 0.102 µM. For the same compound, the IC50 [7] was greater than 0.102 µM, the IC50 [8] was 0.00299 µM and the IC50 [9] was greater than 0.102 µM. The IC50 [10] was 0.0105 µM, the IC50 [11] was 0.0121 µM and the IC50 [12] was 0.026 µM. It also gave an IC50 [13] of 0.0356 µM.
Work on `N[C@@H](CSC(c1ccccc1)(c1ccccc1)c1ccccc1)C(=O)O` [S-TRITYL-L-CYSTEINE] yielded an IC50 [1] of 1.7 µM, an IC50 [2] greater than 5.12 µM and an IC50 [3] of 2.09 µM. It also gave an IC50 [4] greater than 5.12 µM, an IC50 [5] of 2.86 µM and an IC50 [6] greater than 5.12 µM. It also gave an IC50 [7] greater than 5.12 µM, an IC50 [8] of 0.76 µM and an IC50 [9] greater than 5.12 µM. For the same compound, the IC50 [10] was greater than 5.12 µM, the IC50 [11] was 0.676 µM and the IC50 [12] was 3.54 µM. For the same compound, the IC50 [13] was greater than 5.12 µM.
Compound `CC[C@H](CO)Nc1nc(NCc2ccccc2)c2ncn(C(C)C)c2n1` [SELICICLIB] has an IC50 [1] of 8.5 µM, an IC50 [2] greater than 16 µM and an IC50 [3] of 10.4 µM. It also gave an IC50 [4] greater than 16 µM, an IC50 [5] of 12.3 µM and an IC50 [6] greater than 16 µM. For the same compound, the IC50 [7] was greater than 16 µM, the IC50 [8] was 7.13 µM and the IC50 [9] was greater than 16 µM. The IC50 [10] was greater than 16 µM, the IC50 [11] was greater than 16 µM and the IC50 [12] was greater than 16 µM. For the same compound, the IC50 [13] was greater than 16 µM.
`CCN(CC)CCNC(=O)c1c(C)[nH]c(/C=C2\C(=O)Nc3ccc(F)cc32)c1C` [SUNITINIB] showed an IC50 [1] greater than 8 µM, an IC50 [2] greater than 8 µM and an IC50 [3] of 6.35 µM. It also gave an IC50 [4] greater than 8 µM, an IC50 [5] greater than 8 µM and an IC50 [6] greater than 8 µM. The IC50 [7] was greater than 8 µM, the IC50 [8] was greater than 8 µM and the IC50 [9] was greater than 8 µM. For the same compound, the IC50 [10] was greater than 8 µM, the IC50 [11] was 2.9 µM and the IC50 [12] was 7.54 µM. For the same compound, the IC50 [13] was 5.77 µM.

Reference: ChEMBL document CHEMBL1201861, “Genomics of Drug Sensitity in Cancer screening data, Wellcome Trust Sanger Institute”
